From publication PMC6587507, “Comparison of the metabolism of 10 chemicals in human and pig skin explants” (Journal of Applied Toxicology, 2018) come the findings set out here.

The test system of data set [1] is pig ear skin explants. How it is done: (§1) Human abdominal skin was obtained (with consent for research from a commercial supplier [L’Union Clinic, Rangueil hospital and Icelltis, Toulouse, France] with certified ethical procedures) from six male and 34 female healthy donors, 41 ± 11 years of age, undergoing cosmetic surgery. Abdominal skin was kept at 4°C during transports and placed in culture within 3 hours of surgery. Pig ear skin was a waste product of the meat industry (without hot steam treatment) from domestic pigs (female Pietrain breed, 6 months old, 80‐100 kg) obtained from a local slaughterhouse (Montauban, France). Ears were taken from the animals within 5 minutes of slaughter and were kept at 4°C during transport to the laboratory, which lasted a maximum of 2 hours. Pig skin samples were dried and then gently shaved.
(§2) The experiment and the preparation of the culture medium were performed under sterile conditions. Human and pig skin was cut with a dermatome to a thickness of 450 ± 50 μm. Skin punches were seeded dermal side down in polycarbonate Transwell® inserts from Corning Life Sciences (Avon, France; 4.16 cm^2 application area with an 8 μm pore size filter). […] The inserts were placed in a six‐well plate containing 1.5 mL culture medium and the skin explants incubated in a standard incubator at 37°C, under an atmosphere of 5% CO2 and 50 ± 10% relative humidity. The culture medium was Dulbecco's modified Eagle medium without phenol red supplemented with 8 mM L‐glutamine, 2 μg/mL streptomycin/penicillin, 25 ng/mL fungizone and 50 ng/mL gentamycin. Skin explants were incubated for 1 hour before application of the formulation.
(§3) The dosing volume was 10 μL/cm^2. For pig skin metabolism studies, which were carried out before the human skin experiments to ensure the analytics were optimal, 2.4 nmol/cm^2 of each chemical (only the ^14C‐labeled form) was applied on the skin and incubated for 24 hours for the measurement of metabolites in the medium. These tissues were further incubated for a total of 48 hours, with a replacement of the culture medium after 24 hours. This longer incubation time and the standard doses of 2.4 nmol/cm^2 were used to maximize the likelihood of the skin forming metabolites to develop analytical methods. The metabolites profiles in pig and human skin were compared in the medium sample at 24 hours of incubation. The metabolite profiles for the 48‐hour timepoint are not reported here since humans skin metabolism was measured at 24 hours only; however, for completeness, the distribution of radioactivity at the end of both pig (48 hours) and human (24 hours) skin incubations is reported. […] The doses were obtained by mixing radiolabeled and cold chemical. One replicate disc per donor and per dose was used. All chemicals were tested on four donors of pig and human skin, except for 2‐AAF and 4‐amino‐3‐nitrophenol (4‐A‐3‐NP), for which three donors were used. The medium was removed after 24 hours of incubation and stored at −20°C for analysis.
(§4) After centrifugation, a 100 μL aliquot of the extract was counted by liquid scintillation. The pellet was dissolved in 3 mL Soluable (60°C, 24 hours) and then counted by liquid scintillation.
(§5) Analysis of the chemicals and their metabolites in medium after 24 hours of incubation with pig and human skin was measured by radio‐high‐performance liquid chromatography (HPLC) using an HPLC 1100 Series, Agilent and a Flow Scintillation Analyzer, Radiomatic 610 TR, Perkin Elmer (Villebon‐sur‐Yvette, France). […] To confirm that metabolites were the same in pig and human skin, medium samples were co‐injected on the new column. The metabolites were identified by LC‐electrospray ionization‐HRMS (HPLC‐ESI‐HRMS) with a RSLC3000 HPLC system coupled to a LTQ‐Orbitrap XL mass spectrometer (Thermo Scientific). The HPLC analytical conditions for identification and quantification of the metabolites for each chemical are summarized in Supporting information Table S1.

Data set [2] concerns human abdominal skin explants. How it is done:
as §1, §2, §3, §4, §5

The subject of data set [3] is pig ear skin explants. Description: Cutaneous distribution and mass balance of radioactivity in pig skin explants. The method, then: as §1, §2, §3
(§6) At the end of the experiment, the trans‐wells were dismantled and washed with appropriate solvent for each chemical. […] The cotton swabs were placed in 5 mL of appropriate solvent in a scintillation counting flask and placed in a sonicator bath for 20 minutes. Aliquots of 1 mL were counted by liquid scintillation, after addition of 15 mL of scintillation liquid. Tissue culture inserts were washed with 10 mL of appropriate solvent. One aliquot of 1 mL was counted by liquid scintillation, after addition of 15 mL of scintillation liquid. After media removal, wells were washed twice with 1 mL of the appropriate solvent. Washing solutions were counted by liquid scintillation, after addition of 15 mL of scintillation liquid.
(§7) Pig skin explants were digested using 3 mL Soluable (60°C for 24 hours) and counted by liquid scintillation. Skin extraction process was adapted according to the physicochemical properties of each chemical and its potential metabolites.

The subject of data set [4] is human abdominal skin explants. As to the kind of experiment: Cutaneous distribution and mass balance of radioactivity in human skin explants. The method, then:
as §1, §2, §3, §6, §7

[5] abbreviates: cinnamyl alcohol applied to pig skin, 24 h.
Setting [6] is: cinnamyl alcohol applied to human skin, 24 h.
The mark [7] stands for this setting: pig skin, end of incubation (48 h), mean ± SD.
Setting [8] is: human skin, end of incubation (24 h), mean ± SD.
Where [9] appears, read: propyl paraben applied to pig skin, 24 h.
The mark [10] stands for this setting: propyl paraben applied to human skin, 24 h.
[11] abbreviates: vanillin applied to pig skin, 24 h.
[12] abbreviates: vanillin applied to human skin, 24 h.
The mark [13] stands for this setting: cinnamyl alcohol applied to pig skin, medium 24 h.

Read-outs that look alike come from different tables or passages of the source. Marks after values point to notes of the source that are not given here.

As for `O=C(O)CNC(=O)c1ccccc1` [V (benzoic acid‐glycine conjugate), benzoylglycine], the results for the “Amount of metabolite in the medium after 24 h” value (shortened to “Amount of metabolite”) (in the data set on pig ear skin explants [1] (setting [5]); in data set [2] (setting [6])) were 4.4 ± 1.1 % Applied dose and 1.3 ± 0.1 % Applied dose, respectively.
As to `COc1cc(C=O)ccc1O[C@@H]1O[C@H](C(=O)O)[C@@H](O)[C@H](O)[C@H]1O` [III (vanillin glucuronide), vanillin glucuronide], the “Amount of metabolite” value in the data set on pig ear skin explants [1] is reported as 2.9 ± 0.8 % Applied dose.
For `Cn1c(=O)c2c(ncn2C)n(C)c1=O` [Caffeine], the “% Radioactivity in culture media after 24 h” value (“% Radioactivity” below) in the data set on pig ear skin explants [3] (pig skin, 24 h, 2.4 nmol/cm^2) was determined as 72.0 ± 4.0%. Besides, the “Mass balance (% of applied dose at end of incubation)” value in the data set on pig ear skin explants [3] (pig skin, 48 h, 2.4 nmol/cm^2) is 109.2 ± 3.3 % of applied dose. In addition, in the data set on pig ear skin explants [3] (setting [7]), the Skin radioactivity is 8.4 ± 0.4 % of the applied dose and the Skin surface radioactivity is given as 8.8 ± 10.6 % of the applied dose. In addition, in data set [4] (human skin, 24 h), the “% Radioactivity” value was determined as 81.4 ± 3.3% and the “Mass balance (% of applied dose at end of incubation)” value was 104.0 ± 0.7 % of applied dose. Moreover, in data set [4] (setting [8]), the Medium radioactivity was 81.4 ± 3.3 % of the applied dose, the Skin radioactivity is 21.8 ± 2.5 % of the applied dose and the Skin surface radioactivity was 0.8 ± 0.8 % of the applied dose.
On to `O=C(O)c1ccc(O)cc1` [X (4‐HBA), 4‐hydroxybenzoic acid], for which the “Amount of metabolite” value with pig ear skin explants [1] (setting [9]) is 9.5 ± 0.6 % Applied dose; in the data set with pig ear skin explants [1] (propyl paraben applied to pig skin, 24 h, listed as 4‐hydroxybenzoic acid) it was 9.5 % Applied dose; in data set [2] (setting [10]), 42.09 ± 2.8 % Applied dose.
As to `O=C(O)/C=C\C(=O)O` [II (maleic acid), maleic acid], the “Amount of metabolite” value was 5.6 ± 0.3 % Applied dose with pig ear skin explants [1] (setting [9]) and 0.5 ± 0.03 % Applied dose in data set [2] (setting [10]).
`O=Cc1ccc(O)c(O)c1` [IV (Protocatechuic aldehyde), protocatechuic aldehyde]: the “Amount of metabolite” value in the data set on pig ear skin explants [1] (setting [11]) came to 20.7 ± 1.0 % Applied dose; in the data set with pig ear skin explants [1] (vanillin applied to pig skin, 24 h, listed as protocatechuic aldehyde) it was 21 % Applied dose; in data set [2] (setting [12]) it was 2.4 ± 1.1 % Applied dose.
With `Nc1ccc(OS(=O)(=O)O)cc1[N+](=O)[O-]` [4‐A‐3‐NP‐sulfate], the entries for the “Amount of metabolite” value (with pig ear skin explants [1]; in data set [2]) were 1.8 ± 0.3 % Applied dose and 9.98 ± 2.7 % Applied dose, respectively.
The matching figures for `O=C(O)C1OC(Oc2cccc(O)c2)C(O)C(O)C1O` (stereo not drawn) [R‐glucuronide]: 48.6 ± 0.8 % Applied dose and 33.7 ± 0.6 % Applied dose.
Regarding `O=c1ccc2ccc(O)cc2o1` [HC, 7‐hydroxycoumarin], the “Amount of metabolite” value is 1.5 ± 0.8 % Applied dose in the data set on pig ear skin explants [1] (7‐EC applied to pig skin, 24 h) and 1.4 ± 0.4 % Applied dose in data set [2] (7‐EC applied to human skin, 24 h).
For the molecule `CCCOC(=O)c1ccc(O)cc1` [Propyl paraben], in the data set with pig ear skin explants [3] (female, Pietrain, pig, 48 h), the “Mass balance (% of applied dose at end of incubation)” value is 98.7 ± 3.3 % of applied dose, the Medium radioactivity is recorded as 77.8 ± 4.8 % of the applied dose, the Skin radioactivity is 15.9 ± 3.0 % of the applied dose and the Skin surface radioactivity was 5.0 ± 1.8 % of the applied dose. Besides, in data set [4] (both, human, 24 h), the “% Radioactivity” value is 66.0 ± 9.2%, the “Mass balance (% of applied dose at end of incubation)” value was 91.8 ± 6.6 % of applied dose, the Medium radioactivity is 61.5 ± 3.9 % of the applied dose and the Skin radioactivity is 27.6 ± 7.0 % of the applied dose. The Skin surface radioactivity in data set [4] (both, human, 24 h) was 2.8 ± 2.3 % of the applied dose. Further, in the data set on pig ear skin explants [1] (female, Pietrain, pig, 24 h), the “Parent compound in the medium after 24 h” value worked out at 0.0 % Applied dose and the “Total metabolites in the medium after 24 h” value came out at 50.3 ± 1.1 % Applied dose. In data set [2] (both, human, 24 h), the “Number of metabolites detected in the culture medium” value was 12, the “Parent compound in the medium after 24 h” value stood at 0.2 ± 0.2 % Applied dose and the “Total metabolites in the medium after 24 h” value is reported as 55.8 ± 2.9 % Applied dose.
For the molecule `O=c1ccc2ccc(OS(=O)(=O)[O-])cc2o1.[K+]` [HC‐sulfate], the “Amount of metabolite” value turned out to be 2.6 ± 0.9 % Applied dose in the data set with pig ear skin explants [1] and 0.9 ± 0.6 % Applied dose in data set [2].
The matching figures for `Nc1ccc(OC2OC(C(=O)O)C(O)C(O)C2O)cc1[N+](=O)[O-]` (stereo not drawn) [4‐A‐3‐NP‐glucuronide]: 45.5 ± 0.2 % Applied dose and 35.0 ± 2.4 % Applied dose.
On the same counts, the results for `O=C(O[C@@H]1O[C@H](C(=O)O)[C@@H](O)[C@H](O)[C@H]1O)c1ccccc1` [II (benzoic acid glucuronide), benzoic acid glucuronide] are 0.5 ± 0.04 % Applied dose and 4.6 ± 0.4 % Applied dose.
In the case of `O=C(O)/C=C/c1ccccc1` [VI (cinnamic acid), cinnamic acid], the “Amount of metabolite” value with pig ear skin explants [1] (setting [5]) is recorded as 9.0 ± 0.4 % Applied dose; in data set [2] (setting [6]), 0.8 ± 1.5 % Applied dose. Besides, in the data set on pig ear skin explants [1] (setting [13]), the “Metabolite as share of the total metabolites” value (shortened to “Metabolite as share”) is recorded as 15 % of the total metabolites.
The matching figures for `O=C(O)c1ccccc1` [B (benzoic acid), benzoic acid]: 4.8 ± 1.0 % Applied dose, 0.0 ^* % Applied dose and 8 % of the total metabolites.
For `COc1cc(C(=O)O)ccc1O` [V (vanillic acid), vanillic acid], the “Amount of metabolite” value in the data set on pig ear skin explants [1] (setting [11]) came out at 5.8 ± 0.1 % Applied dose; in data set [2] (setting [12]), 33.5 ± 4.0 % Applied dose; in data set [2] (vanillin applied to human skin, 24 h, listed as vanillic acid), 34 % Applied dose.
For `O=S(=O)(O)Oc1cccc(O)c1` [R‐sulfate], the “Amount of metabolite” value was found to be 0.5 ± 0.03 % Applied dose with pig ear skin explants [1] and 8.2 ± 0.1 % Applied dose in data set [2].
The matching figures for `O=C(O)[C@H]1O[C@@H](Oc2ccc3ccc(=O)oc3c2)[C@H](O)[C@@H](O)[C@@H]1O` [HC‐glucuronide]: 4.9 ± 0.9 % Applied dose and 2.2 ± 1.2 % Applied dose.
Turning to hydroxycinnamic acid [I (HCA)], in the data set with pig ear skin explants [1], the “Amount of metabolite” value is reported as 15.7 ± 1.3 % Applied dose and the “Metabolite as share” value is given as 27 % of the total metabolites. In addition, in data set [2], the “Amount of metabolite” value was 18.0 ± 0.9 % Applied dose and the “Metabolite as share” value is given as 25 % of the total metabolites.
